Results published in PubChem BioAssay AID2060486 (Molecular Pharmacology Branch, DTP, NCI, 2025).

Tested on: IGROV1 complex spheroids (HUVEC, MSC), viability % test/control
Assay: Anticancer human tumor IGROV1 cell line growth inhibition [GQUAD];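 also: spheroids exposed to compounds for 7 days before readout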;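 as to viability, T/C: 100% = DMSO vehicle control viability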
Settings: for IC50: curve of first compound; for viability, T/C: stronger effect = lower value; active = viability on the fitted dose curve at most 10% of control; inactive = the rest
Summary of the method: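 Viability of tumor cells grown as complex spheroids with endothelial and stromal cells, exposed to drug combinations. Top concentration at or near clinical Cmax (else 10 microM), diluted in half-log increments.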

[1] = second compound 0.0316 µM, first compound 0.0316 µM
[2] = second compound 0.0316 µM, first compound 0.1 µM
[3] = second compound 0.0316 µM, first compound 0.316 µM
[4] = second compound 0.0316 µM, first compound 1 µM
[5] = second compound 0.0316 µM, first compound 3.16 µM
[6] = second compound 0.0316 µM, first compound 10 µM
[7] = second compound 0.1 µM, first compound 0.0316 µM
[8] = second compound 0.1 µM, first compound 0.1 µM
[9] = second compound 0.1 µM, first compound 0.316 µM
[10] = second compound 0.1 µM, first compound 1 µM
[11] = second compound 0.1 µM, first compound 3.16 µM
[12] = second compound 0.1 µM, first compound 10 µM
[13] = second compound 0.316 µM, first compound 0.0316 µM
[14] = second compound 0.316 µM, first compound 0.1 µM
[15] = second compound 0.316 µM, first compound 0.316 µM
[16] = second compound 0.316 µM, first compound 1 µM
[17] = second compound 0.316 µM, first compound 3.16 µM
[18] = second compound 0.316 µM, first compound 10 µM
[19] = second compound 1 µM, first compound 0.0316 µM
[20] = second compound 1 µM, first compound 0.1 µM
[21] = second compound 1 µM, first compound 0.316 µM
[22] = second compound 1 µM, first compound 1 µM
[23] = second compound 1 µM, first compound 3.16 µM
[24] = second compound 1 µM, first compound 10 µM
[25] = second compound 3.16 µM, first compound 0.0316 µM
[26] = second compound 3.16 µM, first compound 0.1 µM
[27] = second compound 3.16 µM, first compound 0.316 µM
[28] = second compound 3.16 µM, first compound 1 µM
[29] = second compound 3.16 µM, first compound 3.16 µM
[30] = second compound 3.16 µM, first compound 10 µM
[31] = second compound 10 µM, first compound 0.0316 µM
[32] = second compound 10 µM, first compound 0.1 µM
[33] = second compound 10 µM, first compound 0.316 µM
[34] = second compound 10 µM, first compound 1 µM
[35] = second compound 10 µM, first compound 3.16 µM
[36] = second compound 10 µM, first compound 10 µM

C#Cc1c(F)ccc2cc(O)cc(-c3ncc4c(N5CC6CCC(C5)N6)nc(OCC56CCCN5CC(F)C6)nc4c3F)c12 (centres undefined) + CN(C)c1ccc(Nc2c3ccc(NC(=O)CCN4CCCC4)cc3nc3cc(NC(=O)CCN4CCCC4)ccc23)cc1
active: viability, T/C [36] 5.16%
0.378 µM: IC50 (second compound 10 µM)
> 10 µM: IC50 (second compound 0.0316 µM) | IC50 (second compound 0.1 µM) | IC50 (second compound 0.316 µM)
inactive: viability, T/C [1] 106% | viability, T/C [2] 76.6% | viability, T/C [3] 97.9% | viability, T/C [4] 78.1% | viability, T/C [5] 84.5% | viability, T/C [6] 62.2% | viability, T/C [7] 97.3% | viability, T/C [8] 83.7% | viability, T/C [9] 88% | viability, T/C [10] 84.3% | viability, T/C [11] 93% | viability, T/C [12] 62.1% | viability, T/C [13] 87.8% | viability, T/C [14] 99.1% | viability, T/C [15] 76.3% | viability, T/C [16] 86% | viability, T/C [17] 89.5% | viability, T/C [18] 54% | viability, T/C [19] 86.1% | viability, T/C [20] 89% | viability, T/C [21] 86.7% | viability, T/C [22] 73.6% | viability, T/C [23] 74.1% | viability, T/C [24] 44.8% | viability, T/C [25] 86.4% | viability, T/C [26] 85.4% | viability, T/C [27] 87.7% | viability, T/C [28] 79% | viability, T/C [29] 66.2% | viability, T/C [30] 27.9% | viability, T/C [31] 50% | viability, T/C [32] 50.4% | viability, T/C [33] 59.8% | viability, T/C [34] 38% | viability, T/C [35] 17.2%
8.19 µM: IC50 (second compound 1 µM)
5.09 µM: IC50 (second compound 3.16 µM)

CC(C)n1c(=O)n(C)c2cnc3cc(F)c(-c4ccc(OCCCN5CCCCC5)nc4)cc3c21 + Cc1[nH]c2ccc(F)cc2c1-c1nc2c3cccnc3c3ncccc3c2[nH]1
active: viability, T/C [19] 4% | viability, T/C [20] 4.91% | viability, T/C [21] 5.53% | viability, T/C [22] 4.22% | viability, T/C [23] 5.34% | viability, T/C [24] 3.26% | viability, T/C [25] 4.58% | viability, T/C [26] 4.72% | viability, T/C [27] 4.85% | viability, T/C [28] 5.73% | viability, T/C [29] 4.75% | viability, T/C [30] 1.86% | viability, T/C [31] 4.57% | viability, T/C [32] 6.24% | viability, T/C [33] 5.89% | viability, T/C [34] 5.99% | viability, T/C [35] 4.07% | viability, T/C [36] 2.35%
inactive: viability, T/C [1] 99.9% | viability, T/C [2] 84.8% | viability, T/C [3] 92.5% | viability, T/C [4] 69% | viability, T/C [5] 55.5% | viability, T/C [6] 18.6% | viability, T/C [7] 81.2% | viability, T/C [8] 91.8% | viability, T/C [9] 82.6% | viability, T/C [10] 62.3% | viability, T/C [11] 65.6% | viability, T/C [12] 20.5% | viability, T/C [13] 76.4% | viability, T/C [14] 88.8% | viability, T/C [15] 78% | viability, T/C [16] 59% | viability, T/C [17] 44.5% | viability, T/C [18] 12.2%
< 0.0316 µM: IC50 (second compound 1 µM) | IC50 (second compound 3.16 µM) | IC50 (second compound 10 µM)
4.1 µM: IC50 (second compound 0.1 µM)
2.08 µM: IC50 (second compound 0.316 µM)
3.52 µM: IC50 (second compound 0.0316 µM)
